# Counter-ions that a name gives are not always drawn.
# Columns and labels:
# 5-HT4 receptors = conditions: cited from earlier work
# 5-HT4 receptor subtype = conditions: mouse embryonic colliculi neurons; cited from earlier work
# [1] = system: gastric emptying of solid meals; test: Canine gastric emptying in vivo model, alpha-2 adrenergic model of gastroparesis, solid meal; set-up: species or system dog; conditions: % emptied, treated, emptying delayed by alpha-2 adrenergic agonist
# 5-HT3 receptors = target: T1, 5-HT3 receptors (Mus musculus, UniProt P23979); test: Serotonin 5-HT3 receptor binding assay, [3H]GR65630, NG108-15 membranes; conditions: for Ki: Ki (5-HT3 receptors), [3H]GR65630 1 nM, apparent Ki calculated from IC50
# T1 construct: endogenous in cells; host or cells: NG108-15 neuroblastoma cells (membranes)
# T1 sequence (P23979 24-489): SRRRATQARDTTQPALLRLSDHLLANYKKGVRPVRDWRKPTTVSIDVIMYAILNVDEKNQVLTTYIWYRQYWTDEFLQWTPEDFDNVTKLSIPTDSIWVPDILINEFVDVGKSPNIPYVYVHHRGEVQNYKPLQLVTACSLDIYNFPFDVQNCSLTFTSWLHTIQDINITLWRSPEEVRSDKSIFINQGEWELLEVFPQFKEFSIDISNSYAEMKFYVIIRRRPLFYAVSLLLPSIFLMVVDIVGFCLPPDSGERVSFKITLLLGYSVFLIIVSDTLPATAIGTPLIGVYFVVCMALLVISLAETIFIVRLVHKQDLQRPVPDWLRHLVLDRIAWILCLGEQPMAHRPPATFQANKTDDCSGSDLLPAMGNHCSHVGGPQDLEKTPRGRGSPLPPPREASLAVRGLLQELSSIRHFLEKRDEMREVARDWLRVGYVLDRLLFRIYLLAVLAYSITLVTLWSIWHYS
# Procedure: Preparation of Membrane Suspensions
# NG108-15 neuroblastoma cells were cultured at 37° C. in closed culture flasks for 3-4 days or to confluence (6-16×10^6 cells/flask). […] The cells were centrifuged at 900×g for five minutes at 4° C. At this point the cells could be frozen. The (frozen or freshly prepared) pellets from each flask were suspended in 4 ml buffer and homogenized a second time as above. The resulting supernatant was used for radioligand binding studies.
# To each well of a microtiter plate were added 100 μl tissue, 50 μl [^3 H]GR65630 (4 nM stock, SA=64 Ci/mmol from Dupont/NEN) and 50 μl drugs. Nonspecific binding was measured in the presence of 10 μM zacopride. Reactions were incubated for 45-60 minutes at 25° C. followed by filtration under reduced pressure through GF/B-type filters with the aid of either a Brandel or Skatron macro harvester. The filters were washed with ice-cold buffer (a 6 sec wash time on the Skatron harvester, using filters presoaked with polyethylenimine) and specific binding was measured by either a Packard CA 1900 or an LKB Betaplate counter. […] IC50 values were determined for test drugs, and Ki values calculated from the equation: […]
# GI transit [2] = conditions: man; cited from earlier work
# GI transit [3] = conditions: man; cited from earlier work; remark: listed apart in the source
# antroduodenal motility = conditions: coadministered with cisapride; dogs; cited from earlier work
# gastric emptying [4] = conditions: cited from earlier work
# [5] = system: guinea pig stomach muscle strip; conditions: cited from earlier work
# gastric emptying [6] = conditions: in vivo; cited from earlier work
# [7] = system: transit of a charcoal meal; conditions: mouse, in vivo; cited from earlier work
# [8] = system: peristalsis in the GI tract; conditions: various animal models; cited from earlier work
# [9] = system: 5-HT3-mediated Bezold Jarisch reflex; conditions: in vivo; cited from earlier work
# [10] = system: guinea pig stomach strips; conditions: cited from earlier work
structure (smiles),measurement,setting,value
COc1cc(N)c(Cl)cc1C(=O)NC1CCN2CCCC1C2 (stereo not shown) [BRL-24924],receptor mediating the peristaltic reflex,5-HT4 receptors,mediated through agonism at 5-HT4 receptors
same,correlation of prokinetic activity with 5-HT4 agonist activity,5-HT4 receptor subtype,correlate with agonist activity at a novel 5-HT4 receptor subtype
COc1cc(N)c(Cl)cc1C(=O)NC1CCN(CCCOc2ccc(F)cc2)CC1OC (stereo not shown) [Cisapride],Canine Solid Gastric Emptying (% Control to Treat),"[1]; control 23.2%, at 0.3 mg/kg IG",36.6%
same,correlation of prokinetic activity with 5-HT4 agonist activity,5-HT4 receptor subtype,correlate with agonist activity at a novel 5-HT4 receptor subtype
"COc1cc(N)c(Cl)cc1C(=O)NCC1C2CC3CC1CN(C3)C2 (stereo not drawn) [Example 2, Endo-4-amino-N-(1-azacyclo[3.3.1.1^3,7]decan-4-ylmethyl)-5-chloro-2-methoxybenzamide hydrochloride]",Ki,"5-HT3 receptors; NG108-15 membranes, 25° C.",144 nM
"COc1cc(N)c(Cl)cc1C(=O)NCC1C2CC3CC1CN(C3)C2 (stereo not drawn) [Example 4, Exo-4-amino-N-(1-azacyclo[3.3.1.1^3,7]decan-4-ylmethyl)-5-chloro-2-methoxybenzamide, hydrochloride]",Canine Solid Gastric Emptying (% Control to Treat),"[1]; control 20.2%, at 0.3 mg/kg IV",35.1%
same,Ki,"5-HT3 receptors; NG108-15 membranes, 25° C.",25.7 nM
Cc1nccn1CC1CCc2c(c3ccccc3n2C)C1=O (stereo not shown) [GR38032],small intestinal transit times or mouth-to-cecum transit times,GI transit [2],did not alter small intestinal transit times or mouth-to-cecumtransit times
same,GI transit,GI transit [3],failed to accelerate GI transit
same,colonic transit,GI transit [3],slowed colonic transit in man
CN1[C@@H]2CC[C@H]1C[C@@H](OC(=O)c1c[nH]c3ccccc13)C2 [ICS-205930],effect on the responses to cisapride,antroduodenal motility,did not affect the responses to cisapride
same,gastric emptying rates in vivo,gastric emptying [4],increases in gastric emptying rates in vivo
same,guinea pig stomach muscle strip contraction in vitro,[5],enhanced guinea pig stomach muscle strip contraction in vitro
same,gastric emptying,gastric emptying [6],enhanced gastric emptying
CN1[C@@H]2CC[C@H]1C[C@@H](OC(=O)c1cc(Cl)cc(Cl)c1)C2 [MDL 72222],gastric emptying rates in vivo,gastric emptying [4],increases in gastric emptying rates in vivo
same,guinea pig stomach muscle strip contraction in vitro,[5],enhanced guinea pig stomach muscle strip contraction in vitro
Cc1nccn1CC1CCc2c(c3ccccc3n2C)C1=O.Cl.O.O (stereo not shown) [SN-307],transit of a charcoal meal in mice,[7],enhanced transit of a charcoal meal in mice
"NCCc1c[nH]c2ccc(O)cc12 [Serotonin, 5-hydroxytryptamine]",receptor mediating the peristaltic reflex,5-HT4 receptors,mediated through agonism at 5-HT4 receptors
same,peristalsis in the GI tract,[8],promote peristalsis in the GI tract
Cc1nc[nH]c1CCC(=O)c1cn(C)c2ccccc12 [[^3 H]GR65630],Kd,5-HT3 receptors,1.5 nM
same,Bmax,"5-HT3 receptors; radioligand, NG108-15 membranes, 25° C.",195 fmole/mg protein
CCN(CC)CCNC(=O)c1cc(Cl)c(N)cc1OC [metoclopramide],gastric emptying rates in vivo,gastric emptying [4],increases in gastric emptying rates in vivo
same,5-HT3-mediated Bezold Jarisch reflex,[9],blocks the 5-HT3 -mediated Bezold Jarisch reflex
same,guinea pig stomach muscle strip contraction in vitro,[5],enhanced guinea pig stomach muscle strip contraction in vitro
same,electrical-field stimulated contractions in guinea pig stomach strips,[10],enhanced electrical-field stimulated contractions

# Source: patent publication US5643917A, “4-aminomethyl-1-azaadamantane derived benzamides” (priority 1995, dated 1997)
